Measurements taken from PubChem BioAssay (NCI).
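Tested at 5 concentrations; 48 h exposure; 96-well plates; endpoints linearly interpolated, else capped at highest concentration. Definition used: TGI = concentration required for complete inhibition of growth.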

Experiments:
Assay in all cases: inhibition of tumour cell growth, NCI panel, 48 h
[1] = system: TK-10 renal
[2] = system: HOP-62 NSCLC
[3] = system: OVCAR-4 ovarian
[4] = system: CAKI-1 renal
[5] = system: RPMI-8226 leukemia
[6] = system: SK-MEL-28 melanoma
[7] = system: SN12C renal
[8] = system: OVCAR-8 ovarian
[9] = system: ACHN renal
[10] = system: CCRF-CEM leukemia
[11] = system: HOP-92 NSCLC
[12] = system: OVCAR-5 ovarian
[13] = system: HCT-15 colon
[14] = system: PC-3 prostate
[15] = system: HS 578T breast
[16] = system: MDA-MB-231 breast
[17] = system: MDA-N

| SMILES | TGI [1] | TGI [2] | TGI [3] | TGI [4] | TGI [5] | TGI [6] | TGI [7] | TGI [8] | TGI [9] | TGI [10] | TGI [11] | TGI [12] | TGI [13] | TGI [14] | TGI [15] | TGI [16] | TGI [17] |
| --- | --- | --- | --- | --- | --- | --- | --- | --- | --- | --- | --- | --- | --- | --- | --- | --- | --- |
| CCOC(=O)/C(=C/c1ccccc1)N(CC)CC | > 100 µM | > 100 µM | > 100 µM | > 100 µM | > 100 µM | > 100 µM | > 100 µM | > 100 µM | > 100 µM | > 100 µM | > 100 µM | > 100 µM | > 100 µM |  |  |  |  |
| Cc1ccc(C2SCc3nc4ccccc4n32)cc1 (stereo unspecified) | 25.1 µM | 23.7 µM | 92.8 µM | 49.7 µM | 38.8 µM | > 100 µM | 38.6 µM | 30 µM | > 100 µM | > 100 µM | 70 µM | > 100 µM |  | 21.2 µM | 7.17 µM | > 100 µM |  |
| COc1ccc(C2S/C(=C\c3ccc([N+](=O)[O-])cc3)C(=O)N2NC(=O)Cc2ccccc2)cc1 (stereo unspecified) | > 100 µM | > 100 µM | > 100 µM | > 100 µM | > 100 µM | > 100 µM | > 100 µM | > 100 µM | > 100 µM | > 100 µM | > 100 µM | > 100 µM | > 100 µM |  |  |  |  |
| CC(=O)NC(CCCCN(Cc1ccccc1)C(=O)N(C)N=O)C(=O)NCc1ccccc1 (stereo unspecified) | > 100 µM | > 100 µM | > 100 µM | > 100 µM | > 100 µM | > 100 µM | > 100 µM | > 100 µM | > 100 µM | > 100 µM | > 100 µM | > 100 µM | > 100 µM |  |  |  |  |
| CCOC(=O)CCCOc1cc(-c2ccccc2F)nc2cc3c(cc12)OCO3 | > 100 µM | > 100 µM |  | > 100 µM | > 100 µM | > 100 µM | > 100 µM | > 100 µM |  | > 100 µM | > 100 µM | > 100 µM | 14.5 µM | > 100 µM |  | > 100 µM | > 100 µM |
| CC(C)C1COC(C(C)(C)C2=N[C@@H](C(C)C)CO2)=N1 (stereo partly specified) | > 100 µM | > 100 µM | > 100 µM |  | > 100 µM | > 100 µM | > 100 µM | > 100 µM | > 100 µM | > 100 µM | > 100 µM | > 100 µM | > 100 µM |  |  |  |  |
| CC1(C)OC2C(O1)[C@H]1OC(C(Cl)(Cl)Cl)=N[C@H]1C(I)[C@H]2N1C(=O)c2ccccc2C1=O (stereo partly specified) |  | > 100 µM | 55.5 µM |  | > 100 µM | > 100 µM | > 100 µM | > 100 µM | > 100 µM | > 100 µM | > 100 µM | > 100 µM | > 100 µM |  |  |  |  |
| NC(=S)N/N=C(/CCN1CCCC1)CC(C1=C(O)C2=CCCCC2OC1=O)c1ccccc1 (stereo unspecified) | > 100 µM | > 100 µM | > 100 µM | > 100 µM | > 100 µM |  | > 100 µM | > 100 µM | > 100 µM | > 100 µM | > 100 µM | > 100 µM | > 100 µM |  |  |  |  |
| COc1cc(CO)cc2c1[nH]c1ccccc12 | > 25 µM | > 25 µM | > 25 µM |  | > 25 µM | > 25 µM | > 25 µM | > 25 µM | > 25 µM | > 25 µM | > 25 µM | > 25 µM | > 25 µM |  |  |  |  |
| CN1C(CC(O)c2ccccc2)CCCC1CC(O)(c1ccccc1)c1ccccc1 (stereo unspecified) | 38.8 µM | 27.6 µM |  | > 100 µM | 41.1 µM | 30.9 µM | 32.3 µM | 43 µM | 52.2 µM | 58.1 µM |  | 32.7 µM | 34.4 µM | 34.7 µM |  | 48.8 µM | 33.5 µM |
| COC(=O)[C@H]1C2CC[C@@H]3C45C[C@@H](c6ccoc6)O[C@@H]4O[C@@H](O2)C31CCC5C (stereo partly specified) | > 100 µM | > 100 µM | > 100 µM | > 100 µM | > 100 µM |  | > 100 µM | > 100 µM | > 100 µM | > 100 µM | > 100 µM | > 100 µM | > 100 µM |  |  |  |  |
| O[C@]12c3ccccc3C1CCCC2N1CCOCC1 (stereo partly specified) | > 100 µM | > 100 µM | > 100 µM |  | > 100 µM | > 100 µM | > 100 µM | > 100 µM | > 100 µM | > 100 µM |  |  | > 100 µM |  |  |  |  |
| O=C(Cn1c2c(c3ccccc31)CCCC2)N1CCOCC1 | > 100 µM | > 100 µM | > 100 µM | > 100 µM | > 100 µM |  | > 100 µM | > 100 µM | > 100 µM | > 100 µM | > 100 µM | > 100 µM | > 100 µM | > 100 µM | > 100 µM |  | > 100 µM |
